Laboratory results reported in patent US20260285855A1, “HETEROARYL DERIVATIVES AS DDRS INHIBITORS” (CHIESI FARMACEUTICI S.P.A., priority 2023, published 2026).

How the values were obtained:
DDR1 = molecular target: T1, DDR1 (Homo sapiens, UniProt Q08345); test: LanthaScreen Europium Kinase Binding assay, DDR1; details: 5 nM DDR1, 20 nM Kinase Tracer 178, 1 h at rt; Ki from IC50 by Cheng-Prusoff; read-out: Ki DDR1
T1 construct: purchased Carna Biosciences
Experimental: (§1) DDR1 and DDR2 binding assays were performed using Life Technologies LanthaScreen™ Europium Kinase Binding assay. […] IC50 values were determined in GraphPad Prism 7.0 software, using 4 parameter model: log (inhibitor) vs. response. IC50 values were converted in Ki using the Cheng-Prusoff equation (Ki-IC50/(1+ [Tracer]/Kd).

DDR2 = molecular target: T2, DDR2 (Homo sapiens, UniProt Q16832); test: LanthaScreen Europium Kinase Binding assay, DDR2; details: 5 nM DDR2, 10 nM Kinase Tracer 178, 1 h at rt; Ki from IC50 by Cheng-Prusoff; read-out: Ki DDR2
T2 construct: purchased Life Technologies
T2 sequence (Q16832 22-855): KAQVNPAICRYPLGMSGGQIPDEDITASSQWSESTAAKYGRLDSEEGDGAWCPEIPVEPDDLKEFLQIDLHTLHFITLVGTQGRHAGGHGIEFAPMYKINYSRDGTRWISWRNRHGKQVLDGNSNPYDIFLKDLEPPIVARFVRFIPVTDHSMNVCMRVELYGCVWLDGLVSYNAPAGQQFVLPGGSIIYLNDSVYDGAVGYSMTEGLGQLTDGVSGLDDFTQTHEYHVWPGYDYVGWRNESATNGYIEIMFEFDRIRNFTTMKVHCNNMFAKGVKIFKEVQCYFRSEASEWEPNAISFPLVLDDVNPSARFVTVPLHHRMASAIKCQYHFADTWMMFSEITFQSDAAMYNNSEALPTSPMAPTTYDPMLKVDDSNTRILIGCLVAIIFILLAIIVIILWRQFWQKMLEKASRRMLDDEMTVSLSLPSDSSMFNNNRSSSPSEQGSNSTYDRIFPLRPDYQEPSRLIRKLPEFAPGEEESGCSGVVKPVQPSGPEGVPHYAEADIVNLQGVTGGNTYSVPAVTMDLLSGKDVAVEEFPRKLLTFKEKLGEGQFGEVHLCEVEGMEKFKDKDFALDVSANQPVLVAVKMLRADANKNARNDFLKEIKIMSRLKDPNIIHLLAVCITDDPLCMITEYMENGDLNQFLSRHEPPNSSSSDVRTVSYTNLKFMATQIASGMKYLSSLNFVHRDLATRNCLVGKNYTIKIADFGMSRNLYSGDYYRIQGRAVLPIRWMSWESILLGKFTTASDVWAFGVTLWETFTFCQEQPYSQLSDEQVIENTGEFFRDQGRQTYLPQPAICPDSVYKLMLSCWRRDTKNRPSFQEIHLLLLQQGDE
Experimental: as §1

T1 sequence (Q08345 19-913): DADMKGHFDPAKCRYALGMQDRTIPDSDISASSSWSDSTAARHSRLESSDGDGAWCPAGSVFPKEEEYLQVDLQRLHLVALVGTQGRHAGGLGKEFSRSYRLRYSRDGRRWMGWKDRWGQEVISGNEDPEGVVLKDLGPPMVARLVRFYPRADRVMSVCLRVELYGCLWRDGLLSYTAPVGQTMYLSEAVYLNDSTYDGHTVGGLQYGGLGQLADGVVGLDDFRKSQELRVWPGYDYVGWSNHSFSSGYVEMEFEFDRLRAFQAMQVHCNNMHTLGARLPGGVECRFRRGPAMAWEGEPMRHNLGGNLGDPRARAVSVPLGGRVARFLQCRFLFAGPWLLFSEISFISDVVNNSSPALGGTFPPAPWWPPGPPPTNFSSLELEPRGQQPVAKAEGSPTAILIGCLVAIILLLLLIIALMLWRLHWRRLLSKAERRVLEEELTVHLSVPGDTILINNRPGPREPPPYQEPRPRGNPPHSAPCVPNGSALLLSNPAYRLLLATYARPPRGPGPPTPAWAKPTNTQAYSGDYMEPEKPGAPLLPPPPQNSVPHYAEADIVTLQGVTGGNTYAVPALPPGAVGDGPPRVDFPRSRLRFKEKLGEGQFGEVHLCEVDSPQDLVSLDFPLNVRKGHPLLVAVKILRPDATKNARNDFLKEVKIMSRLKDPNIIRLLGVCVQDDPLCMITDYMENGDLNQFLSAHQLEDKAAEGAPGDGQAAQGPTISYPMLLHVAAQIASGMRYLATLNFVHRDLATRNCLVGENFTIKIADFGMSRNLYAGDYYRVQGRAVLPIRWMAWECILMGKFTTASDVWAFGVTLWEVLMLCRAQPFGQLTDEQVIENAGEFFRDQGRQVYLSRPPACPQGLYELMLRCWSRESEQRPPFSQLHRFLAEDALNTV

| Structure (SMILES) | Ki (DDR1) | Ki (DDR2) |
| --- | --- | --- |
| O=C(Nc1cc(OC(F)(F)F)ccn1)NC1CC2(C1)CN(C(=O)c1cnn3ccsc13)C2 [Example 97, 1-(2-(pyrazolo[5,1-b]thiazole-7-carbonyl)-2-azaspiro[3.3]heptan-6-yl)-3-(4-(trifluoromethoxy)pyridin-2-yl)urea] | < 5 nM | < 5 nM |
| CN(C(=O)Nc1cccc(S(F)(F)(F)(F)F)c1)C1CC2(C1)CN(C(=O)c1cnn3ccn(C)c13)C2 [Example 98, 1-methyl-1-(2-(1-methyl-1H-imidazo[1,2-b]pyrazole-7-carbonyl)-2-azaspiro[3.3]heptan-6-yl)-3-(3-(pentafluoro-16-sulfaneyl)phenyl)urea] | < 5 nM | < 5 nM |
| Cc1cc2ncnc(C(=O)N3CC4(CC(NC(=O)Nc5cccc(C(F)(F)F)c5)C4)C3)c2s1 [Example 99, 1-(2-(6-methylthieno[3,2-d]pyrimidine-4-carbonyl)-2-azaspiro[3.3]heptan-6-yl)-3-(3-(trifluoromethyl)phenyl)urea] | < 5 nM | < 5 nM |
| Cn1nc(NC(=O)NC2CC3(C2)CN(C(=O)c2ncnc4ccsc24)C3)cc1C(C)(C)C [Example 100, 1-(5-(tert-butyl)-1-methyl-1H-pyrazol-3-yl)-3-(2-(thieno[3,2-d]pyrimidine-4-carbonyl)-2-azaspiro[3.3]heptan-6-yl)urea] | < 5 nM | 5 to 25 nM |
| O=C(Nc1cc(OC(F)(F)F)ccn1)NC1CC2(C1)CN(C(=O)c1ncnc3ccsc13)C2 [Example 101, 1-(2-(thieno[3,2-d]pyrimidine-4-carbonyl)-2-azaspiro[3.3]heptan-6-yl)-3-(4-(trifluoromethoxy)pyridin-2-yl)urea] | < 5 nM | < 5 nM |
| O=C(Nc1cccc(C(F)(F)F)c1)NC1CC2(C1)CN(C(=O)c1cnn3ccn(CCO)c13)C2 [Example 102, 1-(2-(1-(2-hydroxyethyl)-1H-imidazo[1,2-b]pyrazole-7-carbonyl)-2-azaspiro[3.3]heptan-6-yl)-3-(3-(trifluoromethyl)phenyl)urea] | < 5 nM | 5 to 25 nM |
| Cn1ccn2ncc(C(=O)N3CC4(CC(NC(=O)Nc5cc(C(F)(F)F)ncn5)C4)C3)c12 [Example 103, 1-(2-(1-methyl-1H-imidazo[1,2-b]pyrazole-7-carbonyl)-2-azaspiro[3.3]heptan-6-yl)-3-(6-(trifluoromethyl)pyrimidin-4-yl)urea] | < 5 nM | 5 to 25 nM |
| Cc1ccc(OC(F)(F)F)cc1NC(=O)N(C)C1CC2(C1)CN(C(=O)c1cnn3ccn(C)c13)C2 [Example 104, 1-methyl-1-(2-(1-methyl-1H-imidazo[1,2-b]pyrazole-7-carbonyl)-2-azaspiro[3.3]heptan-6-yl)-3-(2-methyl-5-(trifluoromethoxy)phenyl)urea] | < 5 nM | 5 to 25 nM |
| CN(C(=O)Nc1cc(OC(F)(F)F)ccn1)C1CC2(C1)CN(C(=O)c1cnn3ccn(C)c13)C2 [Example 105, 1-methyl-1-(2-(1-methyl-1H-imidazo[1,2-b]pyrazole-7-carbonyl)-2-azaspiro[3.3]heptan-6-yl)-3-(4-(trifluoromethoxy)pyridin-2-yl)urea] | < 5 nM | 5 to 25 nM |
| Cn1ccn2ncc(C(=O)N3CC4(CC(NC(=O)Nc5cc(F)cc(C(F)(F)F)c5)C4)C3)c12 [Example 106, 1-(3-fluoro-5-(trifluoromethyl)phenyl)-3-(2-(1-methyl-1H-imidazo[1,2-b]pyrazole-7-carbonyl)-2-azaspiro[3.3]heptan-6-yl)urea] | < 5 nM | < 5 nM |
| COc1ncc(C(F)(F)F)cc1NC(=O)NC1CC2(C1)CN(C(=O)c1cnn3ccn(C)c13)C2 [Example 107, 1-(2-methoxy-5-(trifluoromethyl)pyridin-3-yl)-3-(2-(1-methyl-1H-imidazo[1,2-b]pyrazole-7-carbonyl)-2-azaspiro[3.3]heptan-6-yl)urea] | < 5 nM | 5 to 25 nM |

Second part, the compound after the results:

| Ki (DDR1) | Ki (DDR2) | Structure (SMILES) |
| --- | --- | --- |
| < 5 nM | 5 to 25 nM | COc1ncc(Cl)cc1NC(=O)NC1CC2(C1)CN(C(=O)c1cnn3ccn(C)c13)C2 [Example 83, 1-(5-chloro-2-methoxypyridin-3-yl)-3-(2-(1-methyl-1H-imidazo[1,2-b]pyrazole-7-carbonyl)-2-azaspiro[3.3]heptan-6-yl)urea] |
| < 5 nM | 5 to 25 nM | CN1CCN(c2ccn3ncc(C(=O)N4CC5(CC(NC(=O)Nc6cccc(C(F)(F)F)c6)C5)C4)c3c2)CC1 [Example 84, 1-(2-(5-(4-methylpiperazin-1-yl)pyrazolo[1,5-a]pyridine-3-carbonyl)-2-azaspiro[3.3]heptan-6-yl)-3-(3-(trifluoromethyl)phenyl)urea] |
| < 5 nM | 5 to 25 nM | CCN(C(=O)Nc1cccc(C(F)(F)F)c1)C1CC2(C1)CN(C(=O)c1cnn3ccn(C)c13)C2 [Example 85, 1-ethyl-1-(2-(1-methyl-1H-imidazo[1,2-b]pyrazole-7-carbonyl)-2-azaspiro[3.3]heptan-6-yl)-3-(3-(trifluoromethyl)phenyl)urea] |
| < 5 nM | 5 to 25 nM | CCN(C(=O)Nc1cc(F)cc(C(F)(F)F)c1)C1CC2(C1)CN(C(=O)c1cnn3ccn(C)c13)C2 [Example 86, 1-ethyl-3-(3-fluoro-5-(trifluoromethyl)phenyl)-1-(2-(1-methyl-1H-imidazo[1,2-b]pyrazole-7-carbonyl)-2-azaspiro[3.3]heptan-6-yl)urea] |
| < 5 nM | 5 to 25 nM | CN1CCN(c2ccn3ncc(C(=O)N4CC5(CC(NC(=O)Nc6cc(C#N)cc(C(F)(F)F)c6)C5)C4)c3c2)CC1 [Example 87, 1-(3-cyano-5-(trifluoromethyl)phenyl)-3-(2-(5-(4-methylpiperazin-1-yl)pyrazolo[1,5-a]pyridine-3-carbonyl)-2-azaspiro[3.3]heptan-6-yl)urea] |
| < 5 nM | 5 to 25 nM | O=C(Nc1cccc(C(F)(F)F)c1)NC1CC2(C1)CN(C(=O)c1ncnc3sccc13)C2 [Example 88, 1-(2-(thieno[2,3-d]pyrimidine-4-carbonyl)-2-azaspiro[3.3]heptan-6-yl)-3-(3-(trifluoromethyl)phenyl)urea] |
| < 5 nM | < 5 nM | O=C(Nc1cccc(OC(F)F)c1)NC1CC2(C1)CN(C(=O)c1ncnc3ccsc13)C2 [Example 89, 1-(3-(difluoromethoxy)phenyl)-3-(2-(thieno[3,2-d]pyrimidine-4-carbonyl)-2-azaspiro[3.3]heptan-6-yl)urea] |
| < 5 nM | < 5 nM | O=C(Nc1cc(C(F)(F)F)ccn1)NC1CC2(C1)CN(C(=O)c1ncnc3ccsc13)C2 [Example 90, 1-(2-(thieno[3,2-d]pyrimidine-4-carbonyl)-2-azaspiro[3.3]heptan-6-yl)-3-(4-(trifluoromethyl)pyridin-2-yl)urea] |
| < 5 nM | 5 to 25 nM | COc1ccc(OC(F)F)cc1NC(=O)NC1CC2(C1)CN(C(=O)c1cnn3ccn(C)c13)C2 [Example 91, 1-(5-(difluoromethoxy)-2-methoxyphenyl)-3-(2-(1-methyl-1H-imidazo[1,2-b]pyrazole-7-carbonyl)-2-azaspiro[3.3]heptan-6-yl)urea] |
| < 5 nM | < 5 nM | Cn1ccn2ncc(C(=O)N3CC4(CC(NC(=O)Nc5cc(OC(F)(F)F)ccc5Cl)C4)C3)c12 [Example 92, 1-(2-chloro-5-(trifluoromethoxy)phenyl)-3-(2-(1-methyl-1H-imidazo[1,2-b]pyrazole-7-carbonyl)-2-azaspiro[3.3]heptan-6-yl)urea] |
| < 5 nM | < 5 nM | O=C(Nc1cccc(C(F)(F)F)c1)NC1CC2(C1)CN(C(=O)c1ccnc3[nH]ncc13)C2 [Example 93, 1-(2-(1H-pyrazolo[3,4-b]pyridine-4-carbonyl)-2-azaspiro[3.3]heptan-6-yl)-3-(3-(trifluoromethyl)phenyl)urea] |
| < 5 nM | 5 to 25 nM | CN(C(=O)Nc1cc(CO)cc(C(F)(F)F)c1)C1CC2(C1)CN(C(=O)c1cnn3ccsc13)C2 [Example 94, 3-(3-(hydroxymethyl)-5-(trifluoromethyl)phenyl)-1-methyl-1-(2-(pyrazolo[5,1-b]thiazole-7-carbonyl)-2-azaspiro[3.3]heptan-6-yl)urea] |
| < 5 nM | < 5 nM | O=C(Nc1cccc(C(F)(F)F)c1)NC1CC2(C1)CN(C(=O)c1cnc3sccn13)C2 [Example 96, 1-(2-(imidazo[2,1-b]thiazole-5-carbonyl)-2-azaspiro[3.3]heptan-6-yl)-3-(3-(trifluoromethyl)phenyl)urea] |
